Reference: patent publication EP4745135A1 (Gluetacs Therapeutics (Shanghai) Co., Ltd., priority 2023, dated 2025)

How the values were obtained:
[1] = test system: GSPT1; test: Western blot, degradation of substrate protein in hPBMCs; format: cell-based, Human
[2] = biological target: T1, human Cereblon WT GST-tagged protein (Homo sapiens, UniProt Q96SW2); test: CRBN-binding affinity, HTRF (CEREBLON BINDING kit); conditions: for inhibition at 0.5 µM: read-out: Inhibition Rate at 0.5 µM (%); for inhibition at 2 µM: read-out: Inhibition Rate at 2 µM (%)
T1 construct: purchased CISBIO 64BDCRBNPEH

[3] = biological target: T2, IKZF1 (Homo sapiens, UniProt Q13422+Q96SW2); test: Western blot, degradation of substrate protein in hPBMCs; format: cell-based
T2 construct: effects of the compounds of the present disclosure on the expression of target proteins in cells; endogenous in cells; host or cells: human PBMCs (Milecell Biotechnologies)

[4] = biological target: T3, IKZF3 (Homo sapiens, UniProt Q96SW2+Q9UKT9); test: as above; format: cell-based
T3 construct: effects of the compounds of the present disclosure on the expression of target proteins in cells; endogenous in cells; host or cells: human PBMCs (Milecell Biotechnologies)

[5] = biological target: T4, IKZF2 (Homo sapiens, UniProt Q96SW2+Q9UKS7); test: as above; format: cell-based
T4 construct: effects of the compounds of the present disclosure on the expression of target proteins in cells; endogenous in cells; host or cells: human PBMCs (Milecell Biotechnologies)

[6] = biological target: T5, WEE1 (Homo sapiens, UniProt P30291+Q96SW2); test: as above; format: cell-based
T5 construct: effects of the compounds of the present disclosure on the expression of target proteins in cells; endogenous in cells; host or cells: human PBMCs (Milecell Biotechnologies)

[7] = biological target: T6, CK1α (Homo sapiens, UniProt P48729+Q96SW2); test: as above; format: cell-based
T6 construct: effects of the compounds of the present disclosure on the expression of target proteins in cells; endogenous in cells; host or cells: human PBMCs (Milecell Biotechnologies)

[8] = 24 hours treatment, compounds at 50 nM and 500 nM (concentration behind the class not stated)
[9] = Western blot, 24 hours of compound treatment, compounds tested at 50 nM and 500 nM (concentration for the table not stated)

T6 sequence (P48729 whole entry): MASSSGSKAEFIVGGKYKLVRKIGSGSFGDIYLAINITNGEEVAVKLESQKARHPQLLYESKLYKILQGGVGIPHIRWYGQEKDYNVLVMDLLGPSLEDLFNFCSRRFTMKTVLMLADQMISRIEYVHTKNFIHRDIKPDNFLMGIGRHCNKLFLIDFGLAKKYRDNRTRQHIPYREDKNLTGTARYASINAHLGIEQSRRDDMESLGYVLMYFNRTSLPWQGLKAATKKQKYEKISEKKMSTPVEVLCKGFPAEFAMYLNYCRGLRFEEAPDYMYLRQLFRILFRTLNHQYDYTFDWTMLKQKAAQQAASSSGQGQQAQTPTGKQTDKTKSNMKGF
T6 sequence (Q96SW2 whole entry): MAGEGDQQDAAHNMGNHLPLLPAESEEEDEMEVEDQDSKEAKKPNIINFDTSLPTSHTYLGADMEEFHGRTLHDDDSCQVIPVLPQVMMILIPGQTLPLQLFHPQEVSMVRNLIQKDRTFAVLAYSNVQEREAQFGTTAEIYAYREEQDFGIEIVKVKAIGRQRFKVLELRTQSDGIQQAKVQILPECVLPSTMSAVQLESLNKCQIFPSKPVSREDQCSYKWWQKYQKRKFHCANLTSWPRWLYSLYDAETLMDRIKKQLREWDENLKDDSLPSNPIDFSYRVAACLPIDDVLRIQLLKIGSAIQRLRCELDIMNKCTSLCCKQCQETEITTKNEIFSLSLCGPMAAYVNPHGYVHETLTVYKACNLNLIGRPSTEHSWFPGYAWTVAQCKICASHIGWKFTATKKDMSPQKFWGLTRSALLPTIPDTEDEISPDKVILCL
T6 sequence (Q16531 whole entry partner): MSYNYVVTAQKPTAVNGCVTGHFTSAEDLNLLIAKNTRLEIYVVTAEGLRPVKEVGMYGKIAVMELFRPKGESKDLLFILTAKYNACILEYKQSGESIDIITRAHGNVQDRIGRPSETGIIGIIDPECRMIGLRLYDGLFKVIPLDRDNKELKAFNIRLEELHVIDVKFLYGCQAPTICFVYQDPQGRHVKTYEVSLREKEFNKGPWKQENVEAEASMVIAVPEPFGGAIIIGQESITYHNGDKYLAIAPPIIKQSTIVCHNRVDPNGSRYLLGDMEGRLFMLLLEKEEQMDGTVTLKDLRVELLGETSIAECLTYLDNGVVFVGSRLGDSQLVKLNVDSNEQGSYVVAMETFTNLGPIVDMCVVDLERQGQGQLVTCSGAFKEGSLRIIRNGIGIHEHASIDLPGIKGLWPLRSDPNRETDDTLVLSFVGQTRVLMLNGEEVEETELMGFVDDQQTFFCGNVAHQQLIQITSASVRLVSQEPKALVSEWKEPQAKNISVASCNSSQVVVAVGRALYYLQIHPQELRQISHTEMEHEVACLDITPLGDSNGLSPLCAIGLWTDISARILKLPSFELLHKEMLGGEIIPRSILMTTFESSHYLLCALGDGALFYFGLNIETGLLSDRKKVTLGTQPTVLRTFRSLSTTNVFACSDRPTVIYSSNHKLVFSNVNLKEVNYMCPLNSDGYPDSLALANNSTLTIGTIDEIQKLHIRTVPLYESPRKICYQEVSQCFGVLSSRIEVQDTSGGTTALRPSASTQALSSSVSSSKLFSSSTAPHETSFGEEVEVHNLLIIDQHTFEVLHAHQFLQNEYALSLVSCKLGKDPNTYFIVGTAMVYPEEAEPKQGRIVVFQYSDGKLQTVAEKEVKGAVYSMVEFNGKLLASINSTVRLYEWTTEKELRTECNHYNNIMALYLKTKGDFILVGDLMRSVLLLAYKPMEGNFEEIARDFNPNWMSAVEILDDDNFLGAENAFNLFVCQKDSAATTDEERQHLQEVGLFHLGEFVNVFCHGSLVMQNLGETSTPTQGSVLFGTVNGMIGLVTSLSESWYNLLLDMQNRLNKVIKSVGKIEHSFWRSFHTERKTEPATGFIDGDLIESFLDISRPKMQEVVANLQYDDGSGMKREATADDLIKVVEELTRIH
T3 sequence (Q9UKT9 whole entry): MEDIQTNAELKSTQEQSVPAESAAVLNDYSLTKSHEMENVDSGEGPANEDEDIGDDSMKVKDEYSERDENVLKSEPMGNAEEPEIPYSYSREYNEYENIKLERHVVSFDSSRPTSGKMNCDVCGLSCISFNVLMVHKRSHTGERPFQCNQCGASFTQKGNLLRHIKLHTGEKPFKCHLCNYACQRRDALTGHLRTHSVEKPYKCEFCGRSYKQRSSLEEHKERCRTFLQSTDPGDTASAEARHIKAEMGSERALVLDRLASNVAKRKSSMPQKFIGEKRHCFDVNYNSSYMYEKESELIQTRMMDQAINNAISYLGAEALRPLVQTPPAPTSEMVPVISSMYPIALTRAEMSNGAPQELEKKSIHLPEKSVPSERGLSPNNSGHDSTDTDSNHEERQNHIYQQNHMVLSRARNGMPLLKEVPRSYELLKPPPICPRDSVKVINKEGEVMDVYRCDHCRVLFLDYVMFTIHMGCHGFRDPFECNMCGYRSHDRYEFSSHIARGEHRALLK
T3 sequence (Q96SW2 whole entry): as the sequence (Q96SW2 whole entry) above
T3 sequence (Q16531 whole entry partner): as the sequence (Q16531 whole entry partner) above
T1 sequence (Q96SW2 whole entry): as the sequence (Q96SW2 whole entry) above
T2 sequence (Q13422 whole entry): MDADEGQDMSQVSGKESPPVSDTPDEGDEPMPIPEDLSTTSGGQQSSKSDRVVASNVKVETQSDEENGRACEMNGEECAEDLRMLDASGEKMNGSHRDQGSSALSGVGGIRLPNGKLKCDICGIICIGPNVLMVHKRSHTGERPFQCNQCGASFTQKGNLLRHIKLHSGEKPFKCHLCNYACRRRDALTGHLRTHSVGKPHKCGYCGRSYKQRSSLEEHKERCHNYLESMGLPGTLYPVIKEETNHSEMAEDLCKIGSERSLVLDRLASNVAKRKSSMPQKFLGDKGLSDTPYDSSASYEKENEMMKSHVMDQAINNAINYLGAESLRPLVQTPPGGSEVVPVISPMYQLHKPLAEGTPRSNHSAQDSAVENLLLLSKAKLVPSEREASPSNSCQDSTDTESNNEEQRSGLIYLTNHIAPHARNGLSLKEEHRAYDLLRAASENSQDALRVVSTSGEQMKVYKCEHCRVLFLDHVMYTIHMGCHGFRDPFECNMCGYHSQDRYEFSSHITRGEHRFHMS
T2 sequence (Q96SW2 whole entry): as the sequence (Q96SW2 whole entry) above
T2 sequence (Q16531 whole entry partner): as the sequence (Q16531 whole entry partner) above
T4 sequence (Q9UKS7 whole entry): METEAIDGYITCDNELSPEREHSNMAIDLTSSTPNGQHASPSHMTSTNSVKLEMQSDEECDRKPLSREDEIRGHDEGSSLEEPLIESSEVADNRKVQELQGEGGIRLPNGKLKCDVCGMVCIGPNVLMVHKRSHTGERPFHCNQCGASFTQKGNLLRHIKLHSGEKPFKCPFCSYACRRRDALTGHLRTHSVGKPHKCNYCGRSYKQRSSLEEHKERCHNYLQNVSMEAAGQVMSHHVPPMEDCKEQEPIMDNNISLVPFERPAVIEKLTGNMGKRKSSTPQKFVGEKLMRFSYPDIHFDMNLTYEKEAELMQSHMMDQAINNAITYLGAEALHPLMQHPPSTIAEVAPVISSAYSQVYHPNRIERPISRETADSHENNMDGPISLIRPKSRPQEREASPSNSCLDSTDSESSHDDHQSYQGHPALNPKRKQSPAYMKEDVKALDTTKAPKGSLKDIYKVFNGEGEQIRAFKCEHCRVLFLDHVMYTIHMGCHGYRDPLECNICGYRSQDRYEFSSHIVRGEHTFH
T4 sequence (Q96SW2 whole entry): as the sequence (Q96SW2 whole entry) above
T4 sequence (Q16531 whole entry partner): as the sequence (Q16531 whole entry partner) above
T5 sequence (P30291 whole entry): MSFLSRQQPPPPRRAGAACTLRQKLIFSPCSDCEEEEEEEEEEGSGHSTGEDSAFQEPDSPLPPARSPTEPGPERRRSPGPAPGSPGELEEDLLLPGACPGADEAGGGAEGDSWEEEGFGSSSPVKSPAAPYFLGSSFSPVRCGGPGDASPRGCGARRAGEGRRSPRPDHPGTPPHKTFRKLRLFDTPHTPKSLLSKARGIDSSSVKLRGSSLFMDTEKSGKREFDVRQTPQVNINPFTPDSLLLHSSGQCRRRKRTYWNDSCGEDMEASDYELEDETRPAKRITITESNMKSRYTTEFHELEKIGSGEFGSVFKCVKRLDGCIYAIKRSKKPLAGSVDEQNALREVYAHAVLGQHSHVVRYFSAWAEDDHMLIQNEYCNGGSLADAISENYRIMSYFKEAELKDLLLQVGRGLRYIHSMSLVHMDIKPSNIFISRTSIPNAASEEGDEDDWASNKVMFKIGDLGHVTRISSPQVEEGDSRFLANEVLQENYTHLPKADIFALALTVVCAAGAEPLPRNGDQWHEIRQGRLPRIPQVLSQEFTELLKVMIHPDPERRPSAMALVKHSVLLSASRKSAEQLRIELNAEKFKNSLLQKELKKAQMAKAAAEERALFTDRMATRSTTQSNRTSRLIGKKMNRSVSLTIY
T5 sequence (Q96SW2 whole entry): as the sequence (Q96SW2 whole entry) above
T5 sequence (Q16531 whole entry partner): as the sequence (Q16531 whole entry partner) above

Row | inhibition at 0.5 µM [2] [%] | inhibition at 2 µM [2] [%] | SMILES | GSPT1 substrate protein remaining % [1, 8] | IKZF 1 substrate protein remaining % [3, 8] | IKZF3 substrate protein remaining % [4, 8] | IKZF2 substrate protein remaining % [5, 8] | Wee1 substrate protein remaining % [6, 8] | CK1α substrate protein remaining % [7, 8] | GSPT1 substrate protein remaining % [1, 9] | IKZF 1 substrate protein remaining % [3, 9] | IKZF3 substrate protein remaining % [4, 9] | IKZF2 substrate protein remaining % [5, 9] | Wee1 substrate protein remaining % [6, 9] | CK1α substrate protein remaining % [7, 9]
1 | 40 to 53 | 60 to 80 | O=C1CCC(N2Cc3c(CN4CCC(c5cccs5)CC4)cccc3C2=S)C(=O)N1 (stereo not drawn) [GT-08320, 3-(4-((4-(thiophen-2-yl)piperidin-1-yl)methyl)-1-thioxoisoindolin-2-yl)piperidine-2,6-dione] | B (80%< substrate protein remaining %≤ 100%) | B (80%< substrate protein remaining %≤ 100%) | A (0% ≤ substrate protein remaining % ≤ 80%) | B (80%< substrate protein remaining %≤ 100%) | A (0% ≤ substrate protein remaining % ≤ 80%) | B (80%< substrate protein remaining %≤ 100%) |  |  |  |  |  | 
2 | 30 to 40 | 53 to 60 | O=C1CCC(N2Cc3c(CN4CCC(c5cccc(F)c5F)CC4)cccc3C2=S)C(=O)N1 (stereo not drawn) [GT-08322, 3-(4-((4-(2,3-difluorophenyl)piperidin-1-yl)methyl)-1-thioxoisoindolin-2-yl)piperidine-2,6-dione] | A (0% ≤ substrate protein remaining % ≤ 80%) | B (80%< substrate protein remaining %≤ 100%) | B (80%< substrate protein remaining %≤ 100%) | A (0% ≤ substrate protein remaining % ≤ 80%) | A (0% ≤ substrate protein remaining % ≤ 80%) | A (0% ≤ substrate protein remaining % ≤ 80%) |  |  |  |  |  | 
3 | 40 to 53 | 80 to 100 | O=C1CCC(N2Cc3cc(CN4CCC(c5ccoc5)CC4)ccc3C2=S)C(=O)N1 (stereo not drawn) [GT-08326, 3-(5-((4-(furan-3-yl)piperidin-1-yl)methyl)-1-thioxoisoindolin-2-yl)piperidine-2,6-dione] | A (0% ≤ substrate protein remaining % ≤ 80%) | B (80%< substrate protein remaining %≤ 100%) | B (80%< substrate protein remaining %≤ 100%) | A (0% ≤ substrate protein remaining % ≤ 80%) | B (80%< substrate protein remaining %≤ 100%) | A (0% ≤ substrate protein remaining % ≤ 80%) |  |  |  |  |  | 
4 | 60 to 80 | 80 to 100 | O=C1CCC(N2Cc3c(CN4CCc5sccc5C4)cccc3C2=S)C(=O)N1 (stereo not drawn) [GT-08333, 3-(4-((6,7-dihydrothieno[3,2-c]pyridin-5(4H)-yl)methyl)-1-thioxoisoindolin-2-yl)piperidine-2,6-dione] | A (0% ≤ substrate protein remaining % ≤ 80%) | B (80%< substrate protein remaining %≤ 100%) | B (80%< substrate protein remaining %≤ 100%) | B (80%< substrate protein remaining %≤ 100%) | A (0% ≤ substrate protein remaining % ≤ 80%) | A (0% ≤ substrate protein remaining % ≤ 80%) |  |  |  |  |  | 
5 | 40 to 53 | 60 to 80 | O=C1CCC(N2Cc3c(CN4CCn5c(nnc5C(F)(F)F)C4)cccc3C2=S)C(=O)N1 (stereo not drawn) [GT-08365, 3-(1-thioxo-4-((3-(trifluoromethyl)-5,6-dihydro-[1,2,4]triazolo[4,3-a]pyrazin-7(8H)-yl)methyl)isoindolin-2-yl)piperidine-2,6-dione] |  |  |  |  |  |  | A (0% ≤ substrate protein remaining % ≤ 80%) | B (80%< substrate protein remaining %≤ 100%) | B (80%< substrate protein remaining %≤ 100%) | B (80%< substrate protein remaining %≤ 100%) | B (80%< substrate protein remaining %≤ 100%) | B (80%< substrate protein remaining %≤ 100%)
6 | 60 to 80 | 80 to 100 | O=C1CCC(N2Cc3c(CN4CCN(c5nsc6ccccc56)CC4)cccc3C2=S)C(=O)N1 (stereo not drawn) [GT-08366, 3-(4-((4-(benzo[d]isothiazol-3-yl)piperazin-1-yl)methyl)-1-thioxoisoindolin-2-yl)piperidine-2,6-dione] |  |  |  |  |  |  | B (80%< substrate protein remaining %≤ 100%) | B (80%< substrate protein remaining %≤ 100%) | B (80%< substrate protein remaining %≤ 100%) | B (80%< substrate protein remaining %≤ 100%) | A (0% ≤ substrate protein remaining % ≤ 80%) | B (80%< substrate protein remaining %≤ 100%)
7 | 53 to 60 | 80 to 100 | O=C1CCC(N2Cc3c(CN4CCC(c5ccnc(Cl)c5Cl)CC4)cccc3C2=S)C(=O)N1 (stereo not drawn) [GT-08458, 3-(4-((4-(2,3-dichloropyridin-4-yl)piperidin-1-yl)methyl)-1-thioxoisoindolin-2-yl)piperidine-2,6-dione] |  |  |  |  |  |  | B (80%< substrate protein remaining %≤ 100%) | B (80%< substrate protein remaining %≤ 100%) | B (80%< substrate protein remaining %≤ 100%) | B (80%< substrate protein remaining %≤ 100%) | A (0% ≤ substrate protein remaining % ≤ 80%) | B (80%< substrate protein remaining %≤ 100%)
8 | 60 to 80 | 80 to 100 | O=C1CCC(N2Cc3c(CN4CCC(c5ccnc(F)c5F)CC4)cccc3C2=S)C(=O)N1 (stereo not drawn) [GT-08459, 3-(4-((4-(2,3-difluoropyridin-4-yl)piperidin-1-yl)methyl)-1-thioxoisoindolin-2-yl)piperidine-2,6-dione] |  |  |  |  |  |  | B (80%< substrate protein remaining %≤ 100%) | B (80%< substrate protein remaining %≤ 100%) | B (80%< substrate protein remaining %≤ 100%) | B (80%< substrate protein remaining %≤ 100%) | A (0% ≤ substrate protein remaining % ≤ 80%) | B (80%< substrate protein remaining %≤ 100%)
9 | 40 to 53 | 60 to 80 | O=C1CCC(N2Cc3c(CN4CC5CCC4CN5c4cccc(Cl)c4Cl)cccc3C2=S)C(=O)N1 (stereo not drawn) [GT-08469, 3-(4-((5-(2,3-dichlorophenyl)-2,5-diazabicyclo[2.2.2]octan-2-yl)methyl)-1-thioxoisoindolin-2-yl)piperidine-2,6-dione] |  |  |  |  |  |  | A (0% ≤ substrate protein remaining % ≤ 80%) | B (80%< substrate protein remaining %≤ 100%) | B (80%< substrate protein remaining %≤ 100%) | B (80%< substrate protein remaining %≤ 100%) | B (80%< substrate protein remaining %≤ 100%) | B (80%< substrate protein remaining %≤ 100%)

Row | SMILES | inhibition at 0.5 µM [2] [%] | inhibition at 2 µM [2] [%] | GSPT1 substrate protein remaining % [1, 8] | IKZF 1 substrate protein remaining % [3, 8] | IKZF3 substrate protein remaining % [4, 8] | IKZF2 substrate protein remaining % [5, 8] | Wee1 substrate protein remaining % [6, 8] | CK1α substrate protein remaining % [7, 8] | GSPT1 substrate protein remaining % [1, 9] | IKZF 1 substrate protein remaining % [3, 9] | IKZF3 substrate protein remaining % [4, 9] | IKZF2 substrate protein remaining % [5, 9] | Wee1 substrate protein remaining % [6, 9] | CK1α substrate protein remaining % [7, 9]
10 | O=C1CCC(N2Cc3c(CN4CC=C(c5cncc(Cl)c5Cl)CC4)cccc3C2=S)C(=O)N1 (stereo not drawn) [GT-08460, 3-(4-((4,5-dichloro-3',6'-dihydro-[3,4'-bipyridin]-1'(2'H)-yl)methyl)-1-thioxoisoindolin-2-yl)piperidine-2,6-dione] | 60 to 80 | 80 to 100 |  |  |  |  |  |  | B (80%< substrate protein remaining %≤ 100%) | B (80%< substrate protein remaining %≤ 100%) | A (0% ≤ substrate protein remaining % ≤ 80%) | B (80%< substrate protein remaining %≤ 100%) | A (0% ≤ substrate protein remaining % ≤ 80%) | B (80%< substrate protein remaining %≤ 100%)
11 | O=C1CCC(N2Cc3c(CN4CC=C(c5cncc(Cl)c5)CC4)cccc3C2=S)C(=O)N1 (stereo not drawn) [GT-08461, 3-(4-((5-chloro-3',6'-dihydro-[3,4'-bipyridin]-1'(2'H)-yl)methyl)-1-thioxoisoindolin-2-yl)piperidine-2,6-dione] | 60 to 80 | 80 to 100 |  |  |  |  |  |  | B (80%< substrate protein remaining %≤ 100%) | B (80%< substrate protein remaining %≤ 100%) | A (0% ≤ substrate protein remaining % ≤ 80%) | B (80%< substrate protein remaining %≤ 100%) | A (0% ≤ substrate protein remaining % ≤ 80%) | B (80%< substrate protein remaining %≤ 100%)
12 | O=C1CCC(N2Cc3c(CN4CC=C(c5ccnc(Cl)c5Cl)CC4)cccc3C2=S)C(=O)N1 (stereo not drawn) [GT-08462, 3-(4-((2',3'-dichloro-3,6-dihydro-[4,4'-bipyridin]-1(2H)-yl)methyl)-1-thioxoisoindolin-2-yl)piperidine-2,6-dione] | 60 to 80 | 80 to 100 |  |  |  |  |  |  | B (80%< substrate protein remaining %≤ 100%) | B (80%< substrate protein remaining %≤ 100%) | B (80%< substrate protein remaining %≤ 100%) | B (80%< substrate protein remaining %≤ 100%) | A (0% ≤ substrate protein remaining % ≤ 80%) | B (80%< substrate protein remaining %≤ 100%)
